In publication PMC7110753, “Dafachronic acid and temperature regulate canonical dauer pathways during Nippostrongylus brasiliensis infectious larvae activation” (Parasites & Vectors, 2020):

Key:
[1] = tested on: Nbr-DAF-12 (DAF-12 nuclear hormone receptor); experiment: co-transfection luciferase reporter assay in HEK293 cells (agonist)
Cel-DAF-12 (DAF-12) = Cel-DAF-12 (DAF-12) (Caenorhabditis elegans, UniProt G5EFF5); experiment: co-transfection luciferase reporter assay in HEK293 cells (agonist, dose response in Fig. 1b); assay type: cell-based
Chain of Cel-DAF-12 (DAF-12) (G5EFF5 whole entry): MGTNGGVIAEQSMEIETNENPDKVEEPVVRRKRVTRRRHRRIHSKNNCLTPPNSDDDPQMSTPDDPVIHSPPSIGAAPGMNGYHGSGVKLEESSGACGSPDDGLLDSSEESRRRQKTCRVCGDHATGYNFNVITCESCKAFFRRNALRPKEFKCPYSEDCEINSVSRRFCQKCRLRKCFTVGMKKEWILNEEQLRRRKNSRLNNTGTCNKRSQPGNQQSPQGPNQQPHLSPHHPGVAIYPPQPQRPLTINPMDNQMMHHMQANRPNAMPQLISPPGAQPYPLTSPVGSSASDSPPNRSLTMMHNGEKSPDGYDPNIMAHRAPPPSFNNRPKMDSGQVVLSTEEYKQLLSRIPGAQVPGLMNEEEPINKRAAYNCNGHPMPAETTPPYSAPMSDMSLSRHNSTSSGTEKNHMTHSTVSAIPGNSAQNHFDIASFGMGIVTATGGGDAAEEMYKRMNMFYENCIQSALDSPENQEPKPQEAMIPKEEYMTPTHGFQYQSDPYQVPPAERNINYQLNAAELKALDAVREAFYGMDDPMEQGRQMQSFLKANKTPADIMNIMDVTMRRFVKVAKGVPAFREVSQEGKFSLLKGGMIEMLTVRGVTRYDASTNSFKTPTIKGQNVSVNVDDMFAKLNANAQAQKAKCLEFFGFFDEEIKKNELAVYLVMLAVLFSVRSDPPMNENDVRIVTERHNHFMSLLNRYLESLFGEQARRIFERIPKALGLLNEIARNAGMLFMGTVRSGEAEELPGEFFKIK

Δ7-dafachronic acid
EC50 [1]: 115 nM | co-transfection luciferase reporter assay in HEK293 cells (agonist, dose respons) (Cel-DAF-12 (DAF-12)): responds more weakly to Δ7-dafachronic acid than DAF-12 from either the canine hookworm A. caninum (Aca-DAF-12) or the free-living C. elegans
